Measured values from patent publication US7749984B2, “Computer-based model for identification and characterization of non-competitive inhibitors of nicotinic acetylcholine receptors and related ligand-gated ion channel receptors” (priority 2003, dated 2010).
Where two headings read alike, the source gives them in different places.

Columns and labels:
[1] = target: T1, α3β4 nAChR (Rattus norvegicus, UniProt P04757+P12392); assay: biochemical; type: binding; set-up: host or cells: HEK293 (KXα3β4R2); settings: for k′(NLC) retention capacity factor: 10 μM, 20 μl injected, ammonium acetate 10 mM pH 7.4/methanol 85:15
[2] = target: T1, α3β4 nAChR; assay: Nicotine-stimulated 86Rb+ efflux assay, KXα3β4R2 cell line; type: cell-based; set-up: host or cells: HEK293 (KXα3β4R2)
Procedure: After the prediction has been done based on clustering the actual values of IC50 were determined using the nicotine-stimulated ^86Rb^+ efflux assay on cell line KXα3β4R2.

[3] = system: nAChR, SH-SY5Y cells; assay: Rb+ efflux assay, SH-SY5Y cells; type: cell-based, human; settings: cell line SH-SY5Y
[4] = α3β4 nAChR, NLC, read-out: koff dissociation constant rate
[5] = α3β4 nAChR, NLC, read-out: kon association constant rate
[6] = α3β4 nAChR, NLC, read-out: log K chromatographic equilibrium constant (converted)
[7] = nicotine-stimulated 86Rb+ efflux, cell line KXα3β4R2, read-out: IC50

T1 sequence (P04757 26-499): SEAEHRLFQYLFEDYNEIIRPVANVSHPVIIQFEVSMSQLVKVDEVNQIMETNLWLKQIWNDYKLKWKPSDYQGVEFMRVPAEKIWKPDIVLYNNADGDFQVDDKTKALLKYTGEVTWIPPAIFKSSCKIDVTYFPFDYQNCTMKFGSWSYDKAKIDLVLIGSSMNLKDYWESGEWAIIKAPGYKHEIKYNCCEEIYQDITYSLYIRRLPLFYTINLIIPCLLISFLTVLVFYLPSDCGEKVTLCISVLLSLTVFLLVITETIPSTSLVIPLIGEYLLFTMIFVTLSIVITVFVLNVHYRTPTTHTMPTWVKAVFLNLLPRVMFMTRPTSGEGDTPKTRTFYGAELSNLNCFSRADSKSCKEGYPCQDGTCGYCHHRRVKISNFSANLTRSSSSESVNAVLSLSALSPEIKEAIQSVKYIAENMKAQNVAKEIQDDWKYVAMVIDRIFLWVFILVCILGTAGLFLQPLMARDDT
T1 sequence (P12392 21-495): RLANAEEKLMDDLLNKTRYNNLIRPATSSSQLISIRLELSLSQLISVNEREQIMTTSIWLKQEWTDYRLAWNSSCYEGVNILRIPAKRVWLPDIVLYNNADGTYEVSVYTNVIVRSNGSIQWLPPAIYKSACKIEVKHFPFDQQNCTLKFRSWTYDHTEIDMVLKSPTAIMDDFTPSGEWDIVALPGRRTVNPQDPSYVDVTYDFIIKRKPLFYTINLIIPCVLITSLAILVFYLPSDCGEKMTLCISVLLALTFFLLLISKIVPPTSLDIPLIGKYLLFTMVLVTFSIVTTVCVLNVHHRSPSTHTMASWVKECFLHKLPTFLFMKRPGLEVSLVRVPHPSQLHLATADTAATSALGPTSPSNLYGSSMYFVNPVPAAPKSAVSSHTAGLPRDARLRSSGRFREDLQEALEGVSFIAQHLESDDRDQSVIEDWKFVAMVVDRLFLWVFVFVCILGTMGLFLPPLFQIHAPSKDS

SMILES	koff [1, 4] [s⁻¹]	kon [1, 5] [M⁻¹ s⁻¹]	Kd [1, 6] [µM]	k′(NLC) retention capacity factor ([1]; α3β4 nAChR)	further results
COc1ccc(CCNCCCC(C#N)(c2ccc(OC)c(OC)c2)C(C)C)cc1OC (single isomer, unassigned) [nor-verapamil-R, nor-verapamil]	0.58	1.6e+07	0.0363	97.99	
COc1ccc(CCNCCCC(C#N)(c2ccc(OC)c(OC)c2)C(C)C)cc1OC (single isomer, unassigned) [nor-verapamil-S, nor-verapamil]			0.0398	97.86	koff dissociation constant rate ([1]; α3β4 nAChR, NLC): 0.61 s⁻¹
COc1ccc2c(c1)[C@@]13CCCC[C@H]1[C@@H](C2)NCC3 [3 MM]				56.47	koff dissociation constant rate ([1]; α3β4 nAChR, NLC): 1.00 s⁻¹; log K chromatographic equilibrium constant ([1]; α3β4 nAChR, NLC): 7.28 M^−1
CNCCCC(C#N)(c1ccc(OC)c(OC)c1)C(C)C [Compound D-617]				22.22	koff dissociation constant rate ([1]; α3β4 nAChR, NLC): 2.72 s⁻¹; log K chromatographic equilibrium constant ([1]; α3β4 nAChR, NLC): 6.74 M^−1
COc1ccc(C(C#N)(CCCN)C(C)C)cc1OC [Compound D-620]				17.72	logk′ ([1]; α3β4 nAChR): 1.25; koff dissociation constant rate ([1]; α3β4 nAChR, NLC): 3.43 s⁻¹; log K chromatographic equilibrium constant ([1]; α3β4 nAChR, NLC): 6.53 M^−1; IC50 [2, 7]: 48.9 µM
CN(C)CCN1C(=O)[C@H](O)[C@H](c2ccc(O)cc2)Sc2ccccc21 [Compound M4]					logk′ ([1]; α3β4 nAChR): 1.45; IC50 [2, 7]: 73.2 µM
CNCCN1C(=O)[C@H](O)[C@H](c2ccc(O)cc2)Sc2ccccc21 [Compound M6]					logk′ ([1]; α3β4 nAChR): 1.48; IC50 [2, 7]: 63.1 µM
CNCCN1C(=O)[C@H](OC(C)=O)[C@H](c2ccc(OC)cc2)Sc2ccccc21 [MA]					logk′ ([1]; α3β4 nAChR): 1.61; IC50 [2, 7]: 4.2 µM
C[C@]12N[C@H](Cc3ccccc31)c1ccccc12 [MK-801]	3.48	2.71e+07	0.129	19.10	
CC(=O)Nc1ccc(O)cc1 [acetaminophen]	17.2	8.4e+06	2.04	5.30	
CC(=O)Nc1ccccc1 [acetanilide]	25.5	8.2e+06	3.09	5.95	
NC12CC3CC(CC(C3)C1)C2 [amantadine]	6.73	3.08e+07	0.219	8.98	
CCOC(=O)C1=C(COCCN)NC(C)=C(C(=O)OC)C1c1ccccc1Cl (centres unmarked) [amlodipine]					IC50 ([2]; IC50, nicotine-stimulated 86Rb+ efflux, cell line KXα3β4R2): 5.8 µM
CC(NC(C)(C)C)C(=O)c1cccc(Cl)c1 (centres unmarked) [bupropion]	5.14	2.87e+07	0.178	12.97	IC50 [3]: 1.4 µM
COc1ccc2c(c1)[C@]13CCCC[C@@H]1[C@H](C2)N(C)CC3 [dextromethorphan]	1.01	2.37e+07	0.0427	61.30	difference in ΔG of the complexes ([1]; DM vs LM, chromatographic experiments): 0.3 kcal/mol; K′ ([1]; chromatographic (NLC and van't Hoff)): 61.30 (±0.27); Ka ([1]; chromatographic (NLC)): 23.40 (±0.36) μM^−1; koff ([1]; chromatographic (NLC), read-out: Koff): 1.01 s⁻¹; kon ([1]; chromatographic (NLC), read-out: Kon): 2.37e+07 M⁻¹ s⁻¹; Kd ([1]; chromatographic (NLC), read-out: logKa (converted)): 0.0427 µM; ΔG° ([1]; chromatographic (van't Hoff)): −2.33 (±0.4) kcal mol^−1; ΔH° ([1]; chromatographic (van't Hoff)): −6.92 (±0.19) kcal mol^−1; ΔS° ([1]; chromatographic (van't Hoff)): −15.70 (±0.7) cal mol^−1T^−1; IC50 ([2]; IC50, nicotine stimulated Rb+ efflux): 10.1 µM; IC50 ([2]; IC50, nicotine-stimulated 86Rb+ efflux, α3β4 nAChR): 10 µM; IC50 ([2]; IC50 of Rb+ efflux, cell line KXα3β4R2): 10.1 µM
CN1CC[C@@]23CCCC[C@@H]2[C@@H]1Cc1ccc(O)cc13 [dextrorphan]	2.3	2.07e+07	0.112		
